Reference: ChEMBL document CHEMBL5465560, “Selectivity Literature for EUbOPEN Chemogenomic Library” (2024)

Legend:
[1] = target: T1, Tyrosine-protein kinase Mer (Homo sapiens) (UniProt Q12866); assay: Selectivity interaction (KinomeScan (DiscoverX)) EUB0001079a MERTK; conditions: at 1 µM
T1 sequence (whole entry): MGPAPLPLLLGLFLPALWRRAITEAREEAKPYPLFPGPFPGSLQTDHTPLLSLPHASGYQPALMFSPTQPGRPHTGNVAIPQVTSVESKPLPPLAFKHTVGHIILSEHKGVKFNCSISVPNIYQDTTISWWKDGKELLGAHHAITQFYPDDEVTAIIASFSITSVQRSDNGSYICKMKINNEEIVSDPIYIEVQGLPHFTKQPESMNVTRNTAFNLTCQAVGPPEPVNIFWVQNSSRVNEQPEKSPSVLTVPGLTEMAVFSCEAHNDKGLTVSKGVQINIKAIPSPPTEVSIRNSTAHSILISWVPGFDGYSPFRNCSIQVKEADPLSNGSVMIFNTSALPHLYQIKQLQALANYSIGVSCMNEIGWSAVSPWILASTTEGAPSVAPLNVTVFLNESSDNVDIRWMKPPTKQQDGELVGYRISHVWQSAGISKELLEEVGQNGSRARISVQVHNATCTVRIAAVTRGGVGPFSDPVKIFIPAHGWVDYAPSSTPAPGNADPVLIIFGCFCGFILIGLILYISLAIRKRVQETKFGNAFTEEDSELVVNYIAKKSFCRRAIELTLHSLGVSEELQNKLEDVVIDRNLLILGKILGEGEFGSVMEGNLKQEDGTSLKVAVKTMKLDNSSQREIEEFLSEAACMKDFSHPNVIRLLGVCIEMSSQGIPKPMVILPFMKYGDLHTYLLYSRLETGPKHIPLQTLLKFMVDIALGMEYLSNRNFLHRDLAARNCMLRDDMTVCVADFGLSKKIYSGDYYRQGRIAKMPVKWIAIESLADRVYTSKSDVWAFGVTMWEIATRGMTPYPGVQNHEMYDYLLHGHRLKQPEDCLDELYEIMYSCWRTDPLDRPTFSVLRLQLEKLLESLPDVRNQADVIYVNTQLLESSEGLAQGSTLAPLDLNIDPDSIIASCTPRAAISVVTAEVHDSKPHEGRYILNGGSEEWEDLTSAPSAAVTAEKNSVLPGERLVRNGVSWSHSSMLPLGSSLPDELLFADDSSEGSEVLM

[2] = target: Tyrosine-protein kinase Fyn (Homo sapiens) (UniProt P06241); assay: Selectivity interaction (KinomeScan (DiscoverX)) EUB0001619a FYN; conditions: at 1 µM
[3] = target: Serine/threonine-protein kinase MARK2 (Homo sapiens) (UniProt Q7KZI7); assay: Selectivity interaction (ActivX KiNativ screen (kinase selectivity in THP-1 cell lysates)) EUB0000639a MARK2; format: subcellular; conditions: lysate, at 5 µM
[4] = target: T2, Mitogen-activated protein kinase 13 (Homo sapiens) (UniProt O15264); assay: Selectivity interaction (ActivX KiNativ screen (kinase selectivity in THP-1 cell lysates)) EUB0000639a MAPK13; format: subcellular; conditions: lysate
T2 sequence (whole entry): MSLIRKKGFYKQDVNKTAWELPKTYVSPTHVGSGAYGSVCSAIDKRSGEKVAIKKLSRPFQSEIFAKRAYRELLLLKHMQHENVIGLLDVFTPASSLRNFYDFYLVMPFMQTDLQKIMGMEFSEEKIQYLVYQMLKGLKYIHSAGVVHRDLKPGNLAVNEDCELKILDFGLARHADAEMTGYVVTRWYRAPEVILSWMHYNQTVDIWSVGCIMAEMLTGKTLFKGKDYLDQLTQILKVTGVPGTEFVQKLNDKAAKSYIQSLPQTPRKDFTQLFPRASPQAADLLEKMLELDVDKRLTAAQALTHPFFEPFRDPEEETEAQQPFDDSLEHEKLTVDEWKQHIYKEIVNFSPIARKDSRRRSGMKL

[5] = target: T3, Serine/threonine-protein kinase MAK (Homo sapiens) (UniProt P20794); assay: Selectivity interaction (KinomeScan (DiscoverX)) EUB0000092b MAK; conditions: at 10 µM
T3 sequence (whole entry): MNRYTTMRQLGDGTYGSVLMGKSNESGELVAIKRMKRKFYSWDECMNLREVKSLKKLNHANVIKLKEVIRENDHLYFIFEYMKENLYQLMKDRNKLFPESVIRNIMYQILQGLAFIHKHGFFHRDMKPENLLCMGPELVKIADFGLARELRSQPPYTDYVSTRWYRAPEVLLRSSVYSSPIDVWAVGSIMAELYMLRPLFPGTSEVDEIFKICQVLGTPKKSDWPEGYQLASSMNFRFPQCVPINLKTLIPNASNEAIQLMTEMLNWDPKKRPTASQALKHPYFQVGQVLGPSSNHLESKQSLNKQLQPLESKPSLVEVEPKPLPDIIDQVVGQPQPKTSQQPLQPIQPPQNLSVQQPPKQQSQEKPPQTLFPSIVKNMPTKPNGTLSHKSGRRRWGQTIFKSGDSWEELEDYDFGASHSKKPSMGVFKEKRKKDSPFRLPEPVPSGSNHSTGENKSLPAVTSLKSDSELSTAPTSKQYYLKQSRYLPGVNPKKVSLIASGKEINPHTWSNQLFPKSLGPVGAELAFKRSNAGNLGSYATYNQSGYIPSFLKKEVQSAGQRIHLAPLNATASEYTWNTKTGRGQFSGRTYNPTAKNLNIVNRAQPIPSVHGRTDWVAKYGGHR

Sequence of Serine/threonine-protein kinase MARK2 (Homo sapiens) (Q7KZI7 whole entry): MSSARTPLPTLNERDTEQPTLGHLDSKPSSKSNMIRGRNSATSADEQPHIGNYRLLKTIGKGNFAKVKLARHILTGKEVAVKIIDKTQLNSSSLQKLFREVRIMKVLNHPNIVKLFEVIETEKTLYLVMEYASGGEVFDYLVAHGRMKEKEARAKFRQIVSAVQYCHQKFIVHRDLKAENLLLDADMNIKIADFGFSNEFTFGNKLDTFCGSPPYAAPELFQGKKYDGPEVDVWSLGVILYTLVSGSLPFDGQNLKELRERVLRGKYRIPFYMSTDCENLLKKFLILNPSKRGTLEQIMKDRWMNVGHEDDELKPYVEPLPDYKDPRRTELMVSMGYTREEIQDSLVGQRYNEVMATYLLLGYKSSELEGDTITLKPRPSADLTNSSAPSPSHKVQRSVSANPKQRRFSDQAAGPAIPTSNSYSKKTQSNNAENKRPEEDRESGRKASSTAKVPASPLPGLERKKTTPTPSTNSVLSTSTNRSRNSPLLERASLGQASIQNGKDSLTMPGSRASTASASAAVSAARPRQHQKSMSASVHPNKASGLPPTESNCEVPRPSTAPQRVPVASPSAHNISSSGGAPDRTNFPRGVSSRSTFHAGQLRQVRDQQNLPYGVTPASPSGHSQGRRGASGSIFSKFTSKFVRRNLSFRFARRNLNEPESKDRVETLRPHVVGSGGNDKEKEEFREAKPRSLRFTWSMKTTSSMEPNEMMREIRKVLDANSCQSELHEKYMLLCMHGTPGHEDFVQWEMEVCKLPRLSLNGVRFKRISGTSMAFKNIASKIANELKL
Sequence of Tyrosine-protein kinase Fyn (Homo sapiens) (P06241 2-537 limits assumed): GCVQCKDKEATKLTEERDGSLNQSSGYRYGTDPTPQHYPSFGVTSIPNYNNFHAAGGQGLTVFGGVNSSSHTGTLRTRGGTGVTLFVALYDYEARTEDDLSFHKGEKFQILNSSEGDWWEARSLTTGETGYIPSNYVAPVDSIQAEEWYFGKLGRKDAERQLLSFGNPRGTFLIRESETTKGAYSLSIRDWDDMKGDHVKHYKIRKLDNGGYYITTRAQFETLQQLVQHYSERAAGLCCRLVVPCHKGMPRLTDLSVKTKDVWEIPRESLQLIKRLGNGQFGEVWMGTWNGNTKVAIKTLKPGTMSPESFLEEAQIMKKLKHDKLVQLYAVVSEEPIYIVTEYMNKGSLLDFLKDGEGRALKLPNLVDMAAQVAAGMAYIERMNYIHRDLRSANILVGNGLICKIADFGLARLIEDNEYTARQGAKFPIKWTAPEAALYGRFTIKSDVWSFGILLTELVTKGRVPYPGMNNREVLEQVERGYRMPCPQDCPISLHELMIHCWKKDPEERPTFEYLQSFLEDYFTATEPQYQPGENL

## Nc1cnc(N2CCc3cc(S(=O)(=O)Nc4c(F)cc(Cl)cc4F)cc(N4CCCC4=O)c32)nc1 [TP-020n]
[1]
  % of control: 100%

## N#Cc1cccc(-c2c[nH]c3ncnc(N4CCOCC4)c23)c1
[2]
  % of control: 86%

## CC[C@@H]1[C@H](F)C(=O)N[C@@H]1COc1nccc2cc(C(N)=O)c(OC)cc12 [ZIMLOVISERTIB]
[3]
  % of inhibition: 48.9%
[4]; at 0.01 µM
  % of inhibition: -4.4%
[4]; at 0.04 µM
  % of inhibition: 6%
[4]; at 0.2 µM
  % of inhibition: -3.6%
[4]; at 1 µM
  % of inhibition: 7.4%
[4]; at 5 µM
  % of inhibition: 20.3%

## CCC(=O)N1CCN(c2ccc(-n3c(=O)ccc4cnc5ccc(-c6cnc7ccccc7c6)cc5c43)cc2C(F)(F)F)CC1
[5]
  % of control: 68%
